How the values were obtained:
Kin4 = target: T1, Kin4 (Saccharomyces cerevisiae, UniProt Q01919); assay: Affinity purification of tagged protein kinase and LC-MS of bound metabolites; format: binding; details: 379.337 amu at 10.98 min
T1 sequence (Q01919 1-800): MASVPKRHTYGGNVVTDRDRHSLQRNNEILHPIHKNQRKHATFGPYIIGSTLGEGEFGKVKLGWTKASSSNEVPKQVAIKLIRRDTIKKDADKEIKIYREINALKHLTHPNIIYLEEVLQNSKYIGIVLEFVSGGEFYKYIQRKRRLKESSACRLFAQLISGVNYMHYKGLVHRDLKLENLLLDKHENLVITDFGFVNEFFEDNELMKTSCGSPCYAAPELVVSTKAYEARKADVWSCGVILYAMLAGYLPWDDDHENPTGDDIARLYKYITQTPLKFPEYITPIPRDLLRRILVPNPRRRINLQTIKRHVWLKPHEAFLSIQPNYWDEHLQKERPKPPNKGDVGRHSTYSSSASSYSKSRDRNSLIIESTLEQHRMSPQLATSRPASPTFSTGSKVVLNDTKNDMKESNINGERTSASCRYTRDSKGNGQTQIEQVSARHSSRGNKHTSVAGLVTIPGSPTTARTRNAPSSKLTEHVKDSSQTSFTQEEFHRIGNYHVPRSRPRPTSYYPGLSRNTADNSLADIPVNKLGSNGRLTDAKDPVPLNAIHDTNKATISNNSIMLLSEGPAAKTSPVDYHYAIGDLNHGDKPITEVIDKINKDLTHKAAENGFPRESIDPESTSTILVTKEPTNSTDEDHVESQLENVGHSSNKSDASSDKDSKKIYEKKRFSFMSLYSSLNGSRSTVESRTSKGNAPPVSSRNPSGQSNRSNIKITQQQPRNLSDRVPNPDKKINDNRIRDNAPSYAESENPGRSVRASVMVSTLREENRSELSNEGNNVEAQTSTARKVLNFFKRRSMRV

[1] = system: 21 ergosterol biosynthetic proteins (Erg proteins); details: of 21 Erg enzymes, above the control
Hmg1 = target: T2, Hmg1 (Saccharomyces cerevisiae, UniProt P12683); format: binding; details: probably low level of protein in the preparation
T2 sequence (P12683 1-1054): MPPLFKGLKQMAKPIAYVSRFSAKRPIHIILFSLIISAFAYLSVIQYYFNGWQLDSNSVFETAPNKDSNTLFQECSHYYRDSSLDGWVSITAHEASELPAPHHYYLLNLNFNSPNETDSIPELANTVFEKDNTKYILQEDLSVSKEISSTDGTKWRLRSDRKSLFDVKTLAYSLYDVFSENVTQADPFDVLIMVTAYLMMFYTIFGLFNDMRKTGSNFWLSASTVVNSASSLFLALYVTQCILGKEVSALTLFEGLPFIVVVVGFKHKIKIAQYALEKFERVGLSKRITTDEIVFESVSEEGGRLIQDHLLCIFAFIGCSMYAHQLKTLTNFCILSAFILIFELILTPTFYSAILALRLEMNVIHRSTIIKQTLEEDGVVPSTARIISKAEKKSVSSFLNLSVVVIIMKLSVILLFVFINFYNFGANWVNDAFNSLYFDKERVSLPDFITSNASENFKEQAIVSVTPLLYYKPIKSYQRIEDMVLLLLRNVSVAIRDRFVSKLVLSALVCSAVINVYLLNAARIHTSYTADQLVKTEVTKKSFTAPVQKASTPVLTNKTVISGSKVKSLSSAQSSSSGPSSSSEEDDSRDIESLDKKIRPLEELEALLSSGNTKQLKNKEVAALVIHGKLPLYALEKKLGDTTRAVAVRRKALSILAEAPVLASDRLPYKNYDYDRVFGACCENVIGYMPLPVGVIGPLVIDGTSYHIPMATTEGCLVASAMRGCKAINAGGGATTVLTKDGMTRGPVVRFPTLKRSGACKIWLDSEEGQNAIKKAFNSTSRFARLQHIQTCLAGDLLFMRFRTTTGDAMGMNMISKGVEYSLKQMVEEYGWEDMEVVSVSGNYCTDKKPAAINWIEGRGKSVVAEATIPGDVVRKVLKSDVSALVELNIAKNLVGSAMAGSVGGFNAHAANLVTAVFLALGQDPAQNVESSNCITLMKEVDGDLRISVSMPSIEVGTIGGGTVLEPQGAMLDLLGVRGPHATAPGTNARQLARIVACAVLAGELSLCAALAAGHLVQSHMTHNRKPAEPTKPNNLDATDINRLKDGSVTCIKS

Ypk1 [2] = target: T3, Ypk1 (Saccharomyces cerevisiae, UniProt P12688); assay: In vitro kinase activity assay; format: biochemical
T3 sequence (P12688 1-680): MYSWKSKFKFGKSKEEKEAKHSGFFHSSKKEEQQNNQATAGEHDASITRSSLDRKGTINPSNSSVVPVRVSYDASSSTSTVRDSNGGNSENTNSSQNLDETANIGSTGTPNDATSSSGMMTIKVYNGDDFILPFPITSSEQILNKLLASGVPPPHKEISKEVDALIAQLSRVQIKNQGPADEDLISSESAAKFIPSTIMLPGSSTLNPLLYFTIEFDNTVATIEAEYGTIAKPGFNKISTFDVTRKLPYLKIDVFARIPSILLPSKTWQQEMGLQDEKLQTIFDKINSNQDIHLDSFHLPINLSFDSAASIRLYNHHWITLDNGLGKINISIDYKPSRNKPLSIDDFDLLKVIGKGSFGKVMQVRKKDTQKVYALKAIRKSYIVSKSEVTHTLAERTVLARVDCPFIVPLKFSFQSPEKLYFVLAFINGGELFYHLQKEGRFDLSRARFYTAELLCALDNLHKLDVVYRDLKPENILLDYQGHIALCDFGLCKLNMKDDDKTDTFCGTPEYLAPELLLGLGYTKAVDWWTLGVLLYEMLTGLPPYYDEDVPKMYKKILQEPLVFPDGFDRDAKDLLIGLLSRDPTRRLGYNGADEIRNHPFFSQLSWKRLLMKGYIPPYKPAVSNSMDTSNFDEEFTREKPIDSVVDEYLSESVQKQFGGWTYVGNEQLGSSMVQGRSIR

Ypk1 [3] = target: T3, Ypk1; assay: Affinity purification of tagged protein kinase and LC-MS of bound metabolites; format: binding; details: identified against pure standards
103 protein kinases = assay: Affinity purification LC-MS profiling of the panel of yeast protein kinases; format: binding, Saccharomyces cerevisiae; details: of 103 kinases analyzed
[4] = system: Atg1, Psk2 and denatured Ypk1; assay: In vitro small metabolite-protein binding assay; parameters: species or system Saccharomyces cerevisiae; details: denatured protein or control proteins; indicates non-specific adsorption

For CC(C)[C@@H](C)/C=C/[C@@H](C)[C@H]1CC[C@H]2C3=CC=C4C[C@@H](O)CC[C@]4(C)[C@H]3CC[C@]12C [ergosterol], which “binding to Kin4” value (Kin4) is on record?
Its value is “specific binding”.

What about the “number of Erg proteins the metabolite co-purified with” value [1] of the same compound?
Its value is 5.

What about the “detection with Hmg1” value (Hmg1) of the same compound?
Its value is “not detected”.

What about the “Ypk1 in vitro kinase activity with increasing concentrations of ergosterol” value (Ypk1 [2]; Ypk1 from erg4Δ strain lacking ergosterol) of the same compound?
Its value is “could not be stimulated”.

And the “Ypk1 in vitro kinase activity with increasing concentrations of ergosterol” value (Ypk1 [2]; Ypk1 from wild type cells grown in the presence of 0.4 mM ergosterol)?
The value was “could be stimulated to a similar extent”.

And the “metabolite extracted from Ypk1” value (Ypk1 [3])?
Its value is “bound metabolite”.

And the “number of protein kinases associated with the metabolite” value (103 protein kinases)?
The value was 15.

And the “shape of binding curve over increasing free ergosterol” value [4]?
Its value is “close to linear”.
